Laboratory results: patent US20200030263A1, “METHODS AND COMPOSITIONS FOR PROMOTING WOUND HEALING WITH DECREASED SCAR FORMATION AFTER GLAUCOMA FILTRATION SURGERY” (United States Government as Represented by the Department …, priority 2017, published 2020)

Columns and labels:
[1] = system: rabbit corneal endothelial cells and keratocytes after −9D PRK; experiment: Rabbit PRK model: in vivo safety (specular microscopy, DAPI, TUNEL)
Procedure: Briefly, corneal haze in rabbits was produced with −9.0 diopter PRK. A single application of SAHA (25 μM) or MMC (0.02%) was applied topically immediately after PRK. Effects of the two drugs were analyzed by slit-lamp microscope, specular microscope, TUNEL assay, and immunofluorescence.
(§1) A 10 mM stock solution of SAHA (Cayman Chemical Company, Ann Arbor, Mich., USA) was prepared using dimethyl sulfoxide (DMSO), and diluted to 25 μM with balanced salt solution (BSS) eye drops (Alcon). For vehicle control, the same volume of DMSO was diluted with BSS. The 0.02% Mitomycin C solution was prepared at the Harry S. Truman VA Hospital Pharmacy, Columbia, Mo. using 5 mg/ml powder (Accord Healthcare, Inc., Durham, N.C., USA) diluted with sterile normal saline. This solution was stable for 1 week at room temperature but was used within 48 hours after preparation. After PRK, rabbits were divided into 3 groups: Group-1 received a single topical application of SAHA (25 μM) for 5 minutes (n=15), Group-2 received a single topical application of MMC (0.02%) for 1 minute (n=15) and Group-3 received a single topical application of vehicle for 5 minutes (n=15). Thereafter, eyes were washed profusely with BSS. The contralateral eye served as naive control. All rabbits received clinical eye examination.
Slit-lamp (SL15, Kowa, Japan), stereo (MZ16F, Leica, Switzerland) and specular (NSP-8800, Konan, Japan) microscopes were used to evaluate ocular health, corneal haze, and corneal endothelial cells in anesthetized animals. Grading of clinical corneal haze was done using Fantes scale by three researchers (AS, MW and SG) in a masked manner. High performance digital imaging system (VK2; Kowa Tokyo, Japan) was used for corneal image analysis.
Rabbits from each group were euthanatized 3-days (n=3), 1-month (n=6), and 4-months (n=6) after PRK. Corneas were snap frozen, sectioned ([…]), and stored at −80° C. Immunofluorescence was used to detect myofibroblast marker αSMA using monoclonal antibody (M0851; Dako, Calif.). TUNEL assay (ApopTag, 57165; Billerica, Mass.) detected apoptosis and DAPI-stained nuclei determined cellular density. Sections were viewed and photographed under a fluorescence microscope (Leica, Deerfield, Ill.) equipped with a digital camera system (SpotCam RT KE; Diagnostic Instruments, MI).
Stained proteins in corneal sections were quantified using Image J software in six randomly selected areas. Standard error means were calculated. One-way ANOVA and Wilcoxon rank sum test were used for statistical analysis. The p value <0.05 was considered significant.

[2] = system: human corneal endothelial cells; settings: cited from earlier work
[3] = system: rabbit model of glaucoma filtration surgery; experiment: Rabbit model of glaucoma filtration surgery (GFS): clinical evaluation of bleb, vascularity, IOP and tolerability; type: in vivo; settings: for bleb appearance (biomicroscopy): day 3, 7, 14 after GFS, compared to flat and scarred blebs in no treatment control; for bleb area compared to untreated controls / bleb length compared to untreated controls: day 3, 7 and 14 after GFS; for bleb area compared to untreated controls: SAHA p<0.05, MMC p<0.01; for bleb length compared to untreated controls: p<0.001; for bleb vascularity score / intraocular pressure: day 7 and day 14 after GFS; for bleb vascularity score: versus no treatment control; for intraocular pressure: versus no-treatment control
Procedure: (§2) Briefly, a rabbit model of glaucoma filtration surgery (GFS) was used. Rabbits underwent GFS received Balanced Salt Solution (BSS) or SAHA (50 μM) or mitomycin C (MMC; 0.04% (w/v)). Clinical scores of intraocular pressure (TOP), bleb vascularity and slit lamp examination were performed. On postoperative day 14, rabbits were sacrificed and the bleb tissues were collected for evaluation of tissue fibrosis with H&E, Masson trichrome (MT), α-smooth muscle actin (α-SMA), and F-actin staining. Further, SAHA-mediated acetylation of histones in corneal fibroblasts and conjunctiva were determined by western blot analysis.
A 10 mM stock solution of SAHA (Cayman Chemical Company, Ann Arbor, Mich., USA) was prepared by dissolving in dimethyl sulfoxide (DMSO) and then further diluted to 50 μM with balanced salt solution (BSS) eye drops (Alcon). For vehicle control, the same volume of DMSO was diluted with BSS. The 0.04% MMC stock solution was prepared in BSS and 0.02% final dose of MMC was given to rabbits. The rabbits were divided into three treatment groups. Groups I rabbits received 100 μl subconjunctival injection of vehicle 30 minutes before the GFS surgery and group II rabbits received 100 μl subconjunctival injection of 50 μM SAHA solution 30 minutes before GFS. Group III rabbits were injected with 100 μl subconjunctival solution of 0.02% MMC 30 minutes before surgery.
Clinical evaluation was performed to check the intraocular pressure (TOP), general appearance and vascularity of the bleb. All these clinical parameters were recorded before the surgery to obtain the baseline values and on days 3, 5, 7, 10 and 14 after surgery. To measure TOP, tonometry was performed using an applanation tonometer (Tono-pen) with animals under topical anesthesia. Bleb's size was graded by measuring its width and length. Bleb vascularity was graded as 0=avascular; 1=normal vascularity; 2=hyperemic; 3=very hyperemic. Anterior chamber inflammation was assessed by slit lamp examination and graded 0=no inflammation; 1=cells present; 2=fibrin formation; 3=hypopyon present.
(§3) The results are expressed as mean±SEM. The data for bleb length, area, vascularity and IOP were analyzed by two way ANOVA and Bonferroni test using GraphPad Prism 6.0 (GraphPad Software, Inc., La Jolla, Calif.) and p<0.05 was considered to be statistical significant. The immunostaining data was analyzed using a t-test.

[4] = system: site of sclerotomy in rabbit eyes after glaucoma filtration surgery; type: in vivo; settings: for DAPI nuclear staining of conjunctival epithelium at site of sclerostomy: rabbit, in vivo
Procedure: as §2
On postoperative day 14, rabbits were humanely euthanized with pentobarbital (150 mg/kg) under general anesthesia. The eyes were enucleated together with the conjunctiva to preserve the bleb and snap frozen in optimal cutting temperature fluid. The tissues were sectioned and stained with hematoxylin and eosin. Masson's trichrome staining was performed to stain collagen. Immunofluorescence staining for f-actin (a marker for activated fibroblasts and myofibroblasts) was performed using Alexa Fluor® 594-conjugated phalloidin (1:40 dilution, A12381, Invitrogen Inc., Carlsbad, Calif.). Immunofluorescence staining for α-smooth muscle actin (αSMA), a marker for myofibroblasts, was performed with mouse monoclonal primary αSMA antibody (1:100 dilution, M0851; Dako, Carpinteria, Calif.). Tissue sections were incubated with 2% bovine serum albumin for 30 minutes at room temperature and then with αSMA monoclonal antibody for 90 minutes. For detection of the primary antibody, the sections were exposed to Alexa 488 goat anti-mouse IgG secondary antibody (1:500 dilution, A11001; Invitrogen Inc.) for 1 hour. The tissue sections at the site of sclerotomy and the sections on every sixth tissue slide on the either side of the sclerotomy were stained for f-actin and αSMA. After completion of immunostaining, tissue sections were mounted in medium containing DAPI (Vectashield; Vector Laboratories, Inc. Burlingame, Calif.), viewed, and photographed under a fluorescence microscope (Leica, Deerfield, Ill.) equipped with a digital camera system (SpotCam RT KE; Diagnostic Instruments, Sterling, Mich.). The stained areas in the imaged slides were quantified using Image J software.
as §3

[5] = Stability of 0.02% Mitomycin C solution; type: physicochemical; settings: 0.02% solution in sterile normal saline, room temperature
Procedure: as §1

[6] = system: corneal haze in rabbits produced with −9.0 diopter PRK; experiment: Corneal haze after −9.0 diopter PRK in rabbits: efficacy (slit-lamp haze score, αSMA immunofluorescence); type: in vivo, rabbit; settings: for Haze score: at 4-months after PRK, Fantes scale, single topical SAHA 25 μM 5 min or MMC 0.02% 1 min, BSS 2.7±0.4; for post-PRK corneal haze compared to no-drug treated corneas: single topical application, p<0.001
Excerpt: Photorefractive keratectomy was used to produce corneal haze in rabbits by performing −9.0 diopter ablation with the Summit Apex excimer laser (Model: SVS APEX Plus ER; Alcon, Ft. Worth, Tex.) as reported previously. Briefly, the rabbits were anesthetized and local anesthesia of the cornea was achieved through the application of topical ophthalmic 0.5% proparacaine hydrochloride (Alcon, Fort Worth, Tex.). A wire lid speculum was placed and corneal epithelium was removed by gentle scraping with surgical Beaver blade #64 (BD Biosciences, Franklin Lakes, N.J.). […] Only one eye of each animal was used for experimentation.
A 10 mM stock solution of SAHA (Cayman Chemical Company, Ann Arbor, Mich., USA) was prepared using dimethyl sulfoxide (DMSO), and diluted to 25 μM with balanced salt solution (BSS) eye drops (Alcon). For vehicle control, the same volume of DMSO was diluted with BSS. […] After PRK, rabbits were divided into 3 groups: Group-1 received a single topical application of SAHA (25 μM) for 5 minutes (n=15), Group-2 received a single topical application of MMC (0.02%) for 1 minute (n=15) and Group-3 received a single topical application of vehicle for 5 minutes (n=15). Thereafter, eyes were washed profusely with BSS. The contralateral eye served as naive control. All rabbits received clinical eye examination.
Rabbits from each group were euthanatized 3-days (n=3), 1-month (n=6), and 4-months (n=6) after PRK. Corneas were snap frozen, sectioned (7 mm), and stored at −80° C. Immunofluorescence was used to detect myofibroblast marker αSMA using monoclonal antibody (M0851; Dako, Calif.). […] Sections were viewed and photographed under a fluorescence microscope (Leica, Deerfield, Ill.) equipped with a digital camera system (SpotCam RT KE; Diagnostic Instruments, MI).

[7] = in vivo; cited from earlier work
[8] = system: cultured corneal fibroblasts; settings: 50 μM or higher dose of SAHA; earlier studies; cited from earlier work
[9] = system: cultured rabbit, equine, canine and human corneal fibroblasts; settings: previous studies from the lab; cited from earlier work
[10] = system: acetylation of Histone H3 and H4 in human corneal fibroblast cells; experiment: Western blot of acetylated histones in human corneal fibroblast cells; type: cell-based; settings: SAHA 2.5 μM
Procedure: (§4) Rabbits were received 100 μl subconjunctival injection of 50 μM SAHA. Cell lysates were prepared from human corneal fibroblast cells treated with SAHA (2.5 μM) at 0, 2, 4, 6, 16 and 24 hours. Rabbit conjunctival tissues were harvested at 0, 2, 6 and 24 hour time points. Cell and tissue lysates were analyzed by western blotting using anti-acetyl Histone H3, anti-acetyl histone H4 (Cell Signaling, Beverly, Mass., USA) and (3-actin (Santa Cruz biotechnology Inc., Dallas, Tex., USA) antibodies respectively. All western blots for each protein were used 3 rabbit tissues and repeated at least two times. Digital quantification of western blots was performed using NIH Image J software and Image Studio software Version 5.2

[11] = system: acetylation of Histone H3 and H4 in rabbit conjunctiva tissue; experiment: Western blot of acetylated histones in rabbit conjunctiva after subconjunctival injection; type: in vivo; settings: 100 μl subconjunctival 50 μM SAHA
Procedure: as §4

[12] = prophylactic MMC 0.02%, 10-50 seconds, nonrandomized controlled trial
[13] = day 14 after GFS, versus no-treatment control

Structure (SMILES): CO[C@@]12[C@H](COC(N)=O)C3=C(C(=O)C(C)=C(N)C3=O)N1C[C@@H]1N[C@@H]12 [MMC, mitomycin C]
- corneal endothelial cell phenotype and density ([1]; 1-month after PRK): significantly compromised endothelial cell phenotype and density
- apoptosis (TUNEL+ cells in stroma and endothelium) ([1]; 1-month and 4-months): many TUNEL+ cells in the stroma and endothelium
- keratocyte number and density in stroma (DAPI-staining) ([1]; 1-month and 4-months post-PRK): significant keratocyte loss
- corneal endothelial cell phenotype and density ([1]; 4-months after PRK): still had compromised endothelial cells
- apoptosis (TUNEL assay) ([1]; corneas collected at 3-days): significant apoptosis in epithelial and keratocyte cells
- qualitative morphometric parameters or quantitative endothelial cell density ([2]; 0.02% MMC topically for 12 seconds and 40 seconds following PRK, other studies): did not have a significant effect
- corneal endothelial cells [2, 12]: significant loss of corneal endothelial cells
- haze formation after PRK [2, 12]: inhibited haze formation
- bleb appearance (biomicroscopy) [3]: elevated blebs but these blebs had a thin, avascular and cystic appearance
- bleb area compared to untreated controls [3]: significantly higher
- bleb length compared to untreated controls [3]: significantly higher
- bleb vascularity score [3]: very robust decrease
- intraocular pressure [3]: lower TOP compared to the no-treatment control eyes but the results were not statistically significant
- bleb vascularity by day 14 ([3]; day 14 after GFS): completely avascular
- ocular adverse findings on clinical evaluation ([3]; rabbit eyes after GFS, SAHA 50 μM or MMC 0.02% subconjunctival): corneal neovascularization and opacity
- f-actin stained area (activated fibroblasts and myofibroblasts) [4, 13]: very robust decrease
- αSMA stained area (myofibroblasts) [4, 13]: very robust decrease
- DAPI nuclear staining of conjunctival epithelium at site of sclerostomy [4]: discontinuous and highly sparse DAPI nuclear staining
- stability of solution [5]: 1 week
- Haze score [6]: 0.85±0.15
- post-PRK corneal haze compared to no-drug treated corneas [6]: significantly decreased

Structure (SMILES): O=C(CCCCCCC(=O)Nc1ccccc1)NO [SAHA, suberoylanilide hydroxamic acid]
- apoptosis (TUNEL assay) ([1]; rabbit, in vivo): did not induce apoptosis in any cell type
- keratocyte number and density in stroma (DAPI-staining) ([1]; rabbit, in vivo): did not reduce number or density of keratocytes
- bleb appearance (biomicroscopy) [3]: transparent and elevated blebs
- bleb area compared to untreated controls [3]: significantly higher
- bleb length compared to untreated controls [3]: significantly higher
- bleb vascularity score [3]: significantly (p<0.01) attenuated
- intraocular pressure [3]: lower TOP compared to the no-treatment control eyes but the results were not statistically significant
- plasma half-life [7]: short
- Masson trichrome staining: collagen deposits at site of sclerotomy [4, 13]: less collagen deposits
- f-actin stained area (activated fibroblasts and myofibroblasts) [4, 13]: significant decrease
- αSMA stained area (myofibroblasts) [4, 13]: significant decrease
- H&E staining: fibrous deposit at site of sclerotomy ([4]; day 14 after GFS, control densely packed with fibrous tissue): mild fibrous deposit and a loosely arranged conjunctival tissue
- DAPI nuclear staining of conjunctival epithelium at site of sclerostomy [4]: continuous and uniform conjunctival epithelium
- Haze score [6]: 0.9±0.1
- post-PRK corneal haze compared to no-drug treated corneas [6]: significantly decreased
- cellular viability of cultured corneal fibroblasts [8]: did not decrease cellular viability
- differentiation of corneal fibroblasts to myofibroblasts [9]: capable of inhibiting differentiation
- time of maximum histone H3 and H4 acetylation [10]: 6 h
- acetylation status of histone H3 and H4 ([10]; 0, 2, 4, 6, 16 and 24 hours): increase the acetylation status of histone H3 and H4
- time of maximum histone H3 and H4 acetylation [11]: 6 h
- acetylation status of histone H3 and H4 ([11]; 0, 2, 6 and 24 hour): increase the acetylation status of histone H3 and H4
